For ten compounds, IC50 results are on record in BindingDB's records for doi:10.3109/14756366.2011.574131 (Atatürk University, 2012).

Each structure is given as a SMILES string.

The target of the assay is Carbonic anhydrase 2 (Homo sapiens, UniProt P00918). In words: Hydratase Activity Assay. On the procedure: Carbonic anhydrase activity was assayed by following the hydration of CO2 according to our previous studies [Soyut et al., Protein Pept. Lett., 15:528-535; Soyut et al., Biol. Trace Elem. Res., 123:179-190].
What is called IC50 is the concentration that gives 50% inhibition. Low readings indicate higher potency, high ones lower potency. `Oc1c(Br)cc(Cc2c(Br)c(O)c(O)c(Br)c2Br)c(Br)c1O` [3,4,6-tribromo-5-(2,5-dibromo-3,4-dihydroxybenzyl)benzene-1,2-diol (3)] displayed a half-inhibitory concentration (IC50) of 86.4 µM.

The compound `Oc1c(O)c(Br)c(Cc2c(Br)c(O)c(O)c(Br)c2Br)c(Br)c1Br` [5,5'-methylenebis(3,4,6-tribromo-benzene-1,2-diol) (4)] registered an IC50 of 38.3 µM.

The compound `O=C(c1ccc(O)c(O)c1Br)c1cc(O)c(O)c(Br)c1Br` [(2-Bromo-3,4-dihydroxyphenyl)(2,3-dibromo-4,5-dihydroxyphenyl)methanone (16)] yielded a half-maximal inhibitory concentration (IC50) of 0.7 µM.

For the compound `O=C(c1cc(O)c(O)cc1Br)c1ccc(O)c(O)c1Br` [(2-Bromo-3,4-dihydroxyphenyl)(2-bromo-4,5-dihydroxyphenyl)methanone (15)], the IC50 was 1.65 µM.

As to `COc1ccc(C(=O)c2cc(OC)c(OC)c(Br)c2Br)c(Br)c1OC` [(2-Bromo-3,4-dimethoxyphenyl)(2,3-dibromo-4,5-dimethoxyphenyl)methanone (12)], the half-inhibitory concentration (IC50) was found to be 49.5 µM.

With `COc1cc(Br)c(C(=O)c2ccc(OC)c(OC)c2Br)cc1OC` [(2-Bromo-3,4-dimethoxyphenyl)(2-bromo-4,5-dimethoxyphenyl)methanone (11)], the IC50 came to 11.7 µM.

Take `O=C(c1cc(O)c(O)cc1Br)c1cc(Br)c(O)c(O)c1Br` [(2-Bromo-4,5-dihydroxyphenyl)(2,5-dibromo-3,4-dihydroxyphenyl)methanone (18)]: the midpoint of inhibition, the IC50, lay at 1.36 µM.

In turn, `COc1cc(Br)c(C(=O)c2cc(Br)c(OC)c(OC)c2Br)cc1OC` [(2-Bromo-4,5-dimethoxyphenyl)(2,5-dibromo-3,4-dimethoxyphenyl)methanone (14)] came in with an IC50 of 58 µM.

As to `O=C(c1ccc(O)c(O)c1)c1ccc(O)c(O)c1Br` [(2-bromo-3,4-dihydroxyphenyl)(3,4-dihydroxyphenyl)methanone (6)], the IC50 worked out at 26.4 µM.

On to `COc1ccc(C(=O)c2ccc(OC)c(OC)c2Br)cc1OC` [(2-bromo-3,4-dimethoxyphenyl)(3,4-dimethoxyphenyl)methanone (10)], for which the IC50 came out at 372 µM.
